Among the data in the Deep4Chem optical property database are fluorescence lifetime values, retold here.

The series in a line: solvent given as SMILES.

On to `CCC1=C(C)C2=C(C)c3c(C)c(CC)c(C)n3[B-](F)(F)[N+]2=C1C`, for which the fluorescence lifetime reads like this: (in C1CCCCC1) 5.6 ns; (in C1CCOC1) 5.63 ns; (in C1COCCO1) 5.48 ns; (in CC#N) 5.96 ns; (in CC(C)=O) 5.92 ns; (in CC(C)O) 6.04 ns. In addition, the fluorescence lifetime is 6.28 ns (in CCC(C)C); 5.9 ns (in CCCCCC); 5.84 ns (in CCCCCCCC); 5.71 ns (in CCCCCCCCCCO); 5.9 ns (in CCCCCCCCO); 5.78 ns (in CCCCCCO). The fluorescence lifetime stood at 5.98 ns (in CCCCO); 6.01 ns (in CCCO); 6.09 ns (in CCO); 5.78 ns (in CCOC(C)=O); 6.21 ns (in CCOCC); 5.56 ns (in CN1CCCC1=O). The fluorescence lifetime by setting is: (in CN(C)C=O) 5.57 ns; (in CO) 6.1 ns; (in Cc1ccccc1) 5.07 ns; (in OCC(F)(F)F) 6.94 ns; (in OCCO) 5.8 ns; (in OCCOc1ccccc1) 5.46 ns. The fluorescence lifetime (in c1ccccc1) stood at 5 ns.

On to `N#Cc1ccc2[nH]ccc2c1`, for which the fluorescence lifetime runs as follows: (in C1CCOC1) 4.4 ns; (in C1COCCO1) 4.2 ns; (in CC#N) 4.4 ns; (in CC(C)O) 4.6 ns; (in CCO) 4.3 ns; (in CO) 2.9 ns. Further, the fluorescence lifetime reads like this: (in CS(C)=O) 7.1 ns; (in NC=O) 5.4 ns; (in O) 0.3 ns; (in OCC(F)(F)F) 0.1 ns; (in [2H]O[2H]) 0.4 ns.

For `CCOC(=O)CN1C(=O)C2=C(c3ccc(N4CCCCC4)cc3)N(CC(=O)OCC)C(=O)C2=C1c1ccccc1`, the fluorescence lifetime by setting is: (in CC#N) 2.7 ns; (in CS(C)=O) 6.7 ns; (in Cc1ccccc1) 4 ns.

For the compound `O=S1(=O)c2ccc(-c3ccc4c(c3)c3ccccc3n4-c3ccccc3)cc2C2(c3cc(-c4ccc5c(c4)c4ccccc4n5-c4ccccc4)ccc31)c1cc(-c3ccc4c(c3)c3ccccc3n4-c3ccccc3)ccc1S(=O)(=O)c1ccc(-c3ccc4c(c3)c3ccccc3n4-c3ccccc3)cc12`, where the note is “in CC1CCCO1”, the fluorescence lifetime was 100 ns.

Consider `Cc1ccc(/C2=c3\cc/c(o3)=C(\c3ccc(C)cc3)c3ccc([nH]3)-c3ccc4n3[B-](F)(F)[N+]3=C(C=CC3=C4c3ccco3)c3ccc2[nH]3)cc1`, for which, for the setting “in ClC(Cl)Cl”, the fluorescence lifetime came out at 4.1 ns.

As for `CCCCc1ccc2ccc3c(CCCC)ccc4ccc1c2c43`, the fluorescence lifetime by setting is: (in CCCCCC) 57.8 ns; (in CO) 70.6 ns; (in ClCCl) 42 ns.

`CC1(C)[C@@H]2[C@@H]1[C@]1(c3ccccc3)N=NC2(c2ccccc2)C2C3C=CC(C3)C21` (some centres not stated) returned a fluorescence lifetime (in CC#N) of 402 ns.

With `CN(C)c1ccc2nc(/C=C/c3cc4c5c(c3)CCCN5CCC4)c(=O)oc2c1`, the fluorescence lifetime (in C1COCCO1) is 2.9 ns; the fluorescence lifetime (in CC#N) turned out to be 0.22 ns; the fluorescence lifetime (in CC(C)=O) was 0.8 ns; the fluorescence lifetime (in CCCCCCC) was determined as 2.02 ns; the fluorescence lifetime (in CCOC(C)=O) came out at 2.4 ns; the fluorescence lifetime (in CN(C)C=O) is 0.18 ns. Besides, the fluorescence lifetime worked out at 0.32 ns (in CS(C)=O), 2.6 ns (in Cc1ccccc1), 1.35 ns (in ClC(Cl)Cl) and 1.35 ns (in ClCCl).

`Cc1ccc(C2=[N+]3C(=Cc4ccc(C)n4[B-]3(F)F)c3ccccc32)[nH]1` came in with a fluorescence lifetime (in ClCCl) of 8.11 ns.

Take `O=P1(c2ccccc2)C2=C(c3ccccc31)S(=O)(=O)c1ccccc12` (configuration not stated): the fluorescence lifetime (in ClCCl) was determined as 12.9 ns.

In turn, `COc1ccc2c(c1)CCC1=C(C#Cc3cc4ccccc4c4ccccc34)O[B-](F)(F)[O+]=C12` came in with a fluorescence lifetime (in ClCCl) of 1.33 ns.

Where the note is “in CCCCCCC”, `COc1nc(Nc2cc3ccc4cccc5ccc(c2)c3c45)nc(OC)n1` came in with a fluorescence lifetime of 112 ns.

Turning to `CC(C)(C)c1ccc(C2=C(c3ccc(-n4c5ccccc5c5ccccc54)cc3)S(=O)(=O)c3c2sc(-c2ccc(-n4c5ccccc5c5ccccc54)cc2)c3-c2ccc(C(C)(C)C)cc2)cc1`, the fluorescence lifetime (in C1CCOC1) came out at 0.47 ns.

With `CCc1ccc(-n2c3ccccc3c3cc4c(cc32)c2ccccc2n4-c2ccc(CC)cc2)cc1`, where the note is “in ClC(Cl)Cl”, the fluorescence lifetime was determined as 3.62 ns.

Turning to `COc1ccc(-c2cc(-c3ccc(C)cc3)nc3c(C#N)c(N4CCCC4)nc(N)c23)cc1`, the fluorescence lifetime by setting is: (in CC#N) 11.7 ns; (in CC(C)=O) 11.3 ns; (in CC(C)O) 11.7 ns; (in CO) 10.3 ns; (in ClC(Cl)Cl) 13.1 ns; (in ClCCl) 13.3 ns. The fluorescence lifetime (in c1ccccc1) came to 12 ns.

As for `COc1ccc(-c2nc3c(c4c2-c2ccccc2CC4)-c2ccccc2CC3)cc1`, the fluorescence lifetime reads like this: (in CC#N) 1.44 ns; (in CCCCCC) 0.45 ns; (in CO) 0.36 ns; (in CS(C)=O) 0.67 ns; (in ClCCl) 0.25 ns.

Regarding `CCOC(=O)c1ccc2c(c1)sc1c3ccc(C(=O)OCC)cc3n(C)c21`, where the note is “in CCCO”, the fluorescence lifetime was 3.9 ns.

Turning to `c1ccc(-c2c3c(c(-c4ccccc4)c4cc5ccccc5cc24)Cc2c(c(-c4ccccc4)c4cc5ccccc5cc4c2-c2ccccc2)C3)cc1`, the fluorescence lifetime runs as follows: (in CC#N) 6.87 ns; (in CCCCCC) 3.8 ns; (in CO) 3.68 ns; (in Cc1ccccc1) 3.24 ns; (in ClCCl) 2.58 ns.

On to `Cc1ccc(-[c+]2c3ccccc3oc3ccccc32)cc1`, for which the fluorescence lifetime (in CC#N) came to 2.1 ns.

The compound `N#Cc1c(-n2c3ccccc3c3cc(I)ccc32)c(C#N)c(-n2c3ccccc3c3cc(I)ccc32)c(-n2c3ccccc3c3cc(I)ccc32)c1-n1c2ccccc2c2cc(I)ccc21` had a fluorescence lifetime (in Cc1ccccc1) of 0.4 ns.

As to `O=C(O)CCCCCn1c2ccccc2c(=O)c2ccccc21`, the fluorescence lifetime (in O) was 14.2 ns.

The compound `c1ccc(N2c3ccc4ccccc4c3-c3c4ccccc4cn[n+]3[B-]2(c2ccccc2)c2ccccc2)cc1` gave a fluorescence lifetime (in Cc1ccccc1) of 2.56 ns.

Regarding `CCN1\C(=C/C=C/C=C/C2=[N+](CC)c3ccc4ccccc4c3C2(C)C)C(C)(C)c2c1ccc1ccccc21`, the fluorescence lifetime is, setting by setting: (in C1CCOC1) 1.11 ns; (in CC#N) 0.85 ns; (in CC(C)=O) 0.96 ns; (in CCO) 0.93 ns; (in CN(C)C=O) 1.19 ns; (in CO) 0.76 ns. Moreover, the fluorescence lifetime was 1.31 ns (in CS(C)=O) and 1.3 ns (in ClCCl).

The compound `O=S1(=O)c2ccccc2C2(c3cc(-c4ccc(N(c5ccccc5)c5ccccc5)cc4)ccc3-c3ccc(-c4ccc(N(c5ccccc5)c5ccccc5)cc4)cc32)c2ccccc21` gave a fluorescence lifetime (in ClCCl) of 1.5 ns.

With `CC1=C(C(C)(C)C)C(C)=[N+]2C1=C(C)c1c(C)c(C(C)(C)C)c(C)n1[B-]2(F)F`, the fluorescence lifetime (in C1CCCCC1) came to 3.91 ns; the fluorescence lifetime (in C1CCOC1) worked out at 4.15 ns; the fluorescence lifetime (in C1COCCO1) is 4.37 ns; the fluorescence lifetime (in CC#N) came out at 4.27 ns; the fluorescence lifetime (in CC(C)=O) came out at 4.34 ns; the fluorescence lifetime (in CC(C)CC(C)(C)C) amounted to 4.43 ns. For the same compound, the fluorescence lifetime runs as follows: (in CCC(C)C) 4.19 ns; (in CCCC(C)=O) 4.54 ns; (in CCCCCC) 4.35 ns; (in CCCCCCCCO) 4.68 ns; (in CCCCCCO) 4.59 ns; (in CCCCO) 4.33 ns. Besides, the fluorescence lifetime by setting is: (in CCCCOC(C)=O) 4.51 ns; (in CCCO) 4.19 ns; (in CCO) 4.09 ns; (in CCOC(C)=O) 4.31 ns; (in CCOCC) 4.27 ns; (in CN(C)C=O) 4.69 ns. Also, the fluorescence lifetime reads like this: (in CNC=O) 4.45 ns; (in CO) 4.21 ns; (in COC(C)=O) 4.44 ns; (in OCC(F)(F)F) 4.64 ns.

In turn, `O=C([O-])c1c2ccccc2c(C(=O)[O-])c2ccccc12` showed a fluorescence lifetime (in CN(C)C=O) of 2.2 ns.

Take `CN(C)c1ccc2c(c1)C(=O)NC2=O`: the fluorescence lifetime reads like this: (in C1CCOC1) 13.8 ns; (in C1COCCO1) 14.9 ns; (in CC#N) 3.9 ns.

Turning to `O=C1O[B-]2(OC1=O)OC(c1ccc3ccccc3c1)=CC(c1ccc3ccccc3c1)=[O+]2`, the fluorescence lifetime was determined as 4.6 ns (in CC#N) and 1.8 ns (in ClC(Cl)(Cl)Cl).

The compound `Cc1cc(C)c(B(c2c(C)cc(C)cc2C)c2cc3cccc4c(B(c5c(C)cc(C)cc5C)c5c(C)cc(C)cc5C)cc5cccc2c5c34)c(C)c1` yielded a fluorescence lifetime (in CCCCCC) of 5 ns.

For `CC(C)(C)c1ccc2c(c1)c1cc(C(C)(C)C)ccc1n2-c1ccc(C#Cc2cccc(C#Cc3ccc(-n4c5ccc(C(C)(C)C)cc5c5cc(C(C)(C)C)ccc54)cc3)c2)cc1`, the fluorescence lifetime stood at 5.51 ns (in CC#N); 1.38 ns (in CCCCC); 4.88 ns (in CO); 1.65 ns (in Cc1ccccc1); 2.51 ns (in ClC(Cl)Cl); 3.62 ns (in ClCCl).

For `CCCCCCCCC1(CCCCCCCC)c2cc(-c3ccc(C(=O)OC)cc3)ccc2-c2ccc(-c3ccc(C(=O)OC)cc3)cc21`, for the setting “in CN(C)C=O”, the fluorescence lifetime turned out to be 1.48 ns.

With `CC(C)(C)[Si](C)(C)C#CC1=CC2=c3cc(C#C[Si](C)(C)C(C)(C)C)c4nc(C(F)(F)C(F)(F)C(F)(F)F)nc5c(C#C[Si](C)(C)C(C)(C)C)cc(c3c54)C3=CC(C#C[Si](C)(C)C(C)(C)C)=C4N=C(C(F)(F)C(F)(F)C(F)(F)F)N=C1C4C32` (configuration not stated), the fluorescence lifetime (in C1CCOC1) was determined as 2.1 ns.

In turn, `CCCCC#Cc1cccc2cc(CCCC)c3cc(-c4cc[b-]5c(c4)c(CCCC)cc4cccc(C#CCCCC)[n+]54)cc[b-]3[n+]12` gave a fluorescence lifetime (in C1CCCCC1) of 4 ns.

`F[B-]1(F)n2c(c3cccc4cccc2c43)=Nc2cccc(Cl)[n+]21` yielded a fluorescence lifetime (in ClCCl) of 6.4 ns.

The compound `CCCCCCCCCCCCN1C(=O)c2c(c3ccc4cc(-c5ccc(Cl)cc5)c(OC)cc4c3c3c2ccc2cc(-c4ccc(Cl)cc4)c(OC)cc23)C1=O` came in with a fluorescence lifetime (in ClCCl) of 6.15 ns.
